Here are results for ten compounds from US10377770B2 (Novartis AG, priority 2015, dated 2019).

The term IC50 denotes the concentration at which inhibition is half-maximal.

The target in the assay is C-Raf FL (full length CRAF with Y340E and Y341E activating mutations, co-expressed with h14-3-3 zeta) (Homo sapiens (Human), UniProt P04049, Y340E/Y341E). In words: In vitro Raf activity determination, AlphaScreen p-MEK readout, c-Raf (C-Raf FL). Particulars: c-Raf approximately 4 nM, ATP 1 μM, pre-incubation 60 minutes, reaction 1 hour. The format is biochemical. A digest of the protocol:
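Phosphorylation of kinase-dead biotinylated MEK1 (~10 nM) by C-Raf FL (~4 nM) read by AlphaScreen luminescence with anti-phospho-MEK1/2 after EDTA stop. ATP was 1 μM, with a 1 h reaction at room temperature. Compounds were pre-incubated with enzyme and substrate for 60 min in Tris/MgCl2 buffer, pH 7.5.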
On the technique in general: Bead proximity is the source of the signal in Alpha formats.

The structures appear in SMILES notation.

C-Raf FL (full length CRAF with Y340E and Y341E activating mutations, co-expressed with h14-3-3 zeta), sequence (P04049 whole entry Y340E/Y341E): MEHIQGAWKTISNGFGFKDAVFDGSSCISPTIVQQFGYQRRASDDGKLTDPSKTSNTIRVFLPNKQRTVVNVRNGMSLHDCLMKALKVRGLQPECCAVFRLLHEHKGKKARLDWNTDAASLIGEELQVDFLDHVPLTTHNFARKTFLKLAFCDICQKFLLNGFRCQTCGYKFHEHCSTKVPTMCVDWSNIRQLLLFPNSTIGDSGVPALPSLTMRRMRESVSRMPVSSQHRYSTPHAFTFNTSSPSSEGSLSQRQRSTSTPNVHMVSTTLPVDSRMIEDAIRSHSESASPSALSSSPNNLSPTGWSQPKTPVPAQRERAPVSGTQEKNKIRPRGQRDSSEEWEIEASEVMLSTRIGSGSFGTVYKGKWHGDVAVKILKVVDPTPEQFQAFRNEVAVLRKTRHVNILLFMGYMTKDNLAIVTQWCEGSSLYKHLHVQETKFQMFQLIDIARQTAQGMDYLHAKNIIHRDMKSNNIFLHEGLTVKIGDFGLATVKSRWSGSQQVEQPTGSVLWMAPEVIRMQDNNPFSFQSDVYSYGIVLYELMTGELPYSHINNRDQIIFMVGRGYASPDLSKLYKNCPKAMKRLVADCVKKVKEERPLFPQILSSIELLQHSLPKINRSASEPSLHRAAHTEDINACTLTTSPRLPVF
C-Raf FL (full length CRAF with Y340E and Y341E activating mutations, co-expressed with h14-3-3 zeta), sequence (P63104 whole entry partner): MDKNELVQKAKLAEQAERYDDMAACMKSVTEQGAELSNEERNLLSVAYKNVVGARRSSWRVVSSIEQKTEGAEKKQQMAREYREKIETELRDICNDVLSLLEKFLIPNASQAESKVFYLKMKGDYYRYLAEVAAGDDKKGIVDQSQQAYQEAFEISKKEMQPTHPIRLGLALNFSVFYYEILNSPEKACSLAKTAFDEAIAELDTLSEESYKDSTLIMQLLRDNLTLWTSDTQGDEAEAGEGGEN

For the compound `CCN1C(=O)C2(F)COCC[C@@H]2c2cc(-c3cc(NC(=O)c4ccnc(C(F)(F)F)c4)ccc3C)cnc21` (stereo partly drawn) [Example 339, N-(3-((10bR)-6-ethyl-4a-fluoro-5-oxo-2,4,4a,5,6,10b-hexahydro-1H-pyrano[3,4-c][1,8]naphthyridin-9-yl)-4-methylphenyl)-2-(trifluoromethyl) isonicotinamide], the IC50 was 0.5 nM.
Under `CCN1C(=O)C2(F)COCC[C@@H]2c2cc(-c3cc(NC(=O)c4cccc(C(F)(F)F)c4)cnc3C)cnc21` (stereo partly drawn) [Example 340, N-(5-((10bR)-6-ethyl-4a-fluoro-5-oxo-2,4,4a,5,6,10b-hexahydro-1H-pyrano[3,4-c][1,8]naphthyridin-9-yl)-6-methylpyridin-3-yl)-3-(trifluoromethyl) benzamide] stands 1.3 nM; under `CCN1C(=O)C2COCCC2(C)c2cc(-c3cc(NC(=O)c4ccnc(C(F)(F)F)c4F)ccc3C)cnc21` (stereo not drawn) [Example 347, N-(3-((4a,10b- trans)-6-ethyl-10b-methyl-5-oxo-2,4,4a.5,6,10b-hexahydro-1H-pyrano[3,4-c][1,8]naphthyridin-9-yl)-4-methylphenyl)-3-fluoro-2-(trifluoromethyl) isonicotinamide], 0.3 nM; under `CCN1C(=O)C2COCCC2(C)c2cc(-c3cc(NC(=O)c4ccnc(C(F)(F)F)c4F)ccc3C)cnc21` (stereo not drawn) [Example 348, N-(3-((4a,10b- trans)-6-ethyl-10b-methyl-5-oxo-2,4,4a,5,6,10b-hexahydro-1H-pyrano[3,4-c][1,8]naphthyridin-9-yl)-4-methylphenyl)-3-fluoro-2-(trifluoromethyl) isonicotinamide], 0.7 nM.
Under `CCN1C(=O)C2COCCC2(C)c2cc(-c3cc(NC(=O)c4cccc(C(F)(F)F)c4)cnc3C)cnc21` (stereo not drawn) [Example 349, N-(5-((4a,10b- trans)-6-ethyl-10b-methyl-5-oxo-2,4,4a,5,6,10b-hexahydro-1H-pyrano[3,4-c][1,8]naphthyridin-9-yl)-6-methylpyridin-3-yl)-3-(trifluoromethyl) benzamide] stands 3 nM; under `CCN1c2ncc(-c3cc(NC(=O)c4ccnc(C(F)(F)F)c4)ccc3C)cc2[C@@H]2CCOC[C@H]2C12CC2` [Example 361, N-(3-((4a′R,10b′R)-6′-ethyl-1′,2′,4′,4a′,6′,10b′-hexahydrospiro[cyclopropane-1,5′-pyrano[3,4-c][1,8]naphthyridin]-9′-yl)-4-methylphenyl)-2-(trifluoromethyl)isonicotinamide], 0.9 nM.
Under `Cc1ncc(NC(=O)c2cccc(C(C)(F)F)c2)cc1-c1ccc2c(c1)N1CCOC[C@H]1[C@](F)(CO)C2` [Example 367, 3-(1,1-difluoroethyl)-N-(5-((4aS,5S)-5-fluoro-5-(hydroxymethyl)-1,2,4,4a,5,6-hexahydro-[1,4]oxazino[4,3-a]quinolin-9-yl)-6-methylpyridin-3-yl)benzamide] stands 1 nM; under `Cc1ncc(NC(=O)c2cccc(C(C)(F)F)c2)cc1-c1ccc2c(c1)N1CCOC[C@@H]1[C@@](F)(CO)C2` [Example 368, 3-(1,1-difluoroethyl)-N-(5-((4aR,5R)-5-fluoro-5-(hydroxymethyl)-1,2,4,4a,5,6-hexahydro-[1,4]oxazino[4,3-a]quinolin-9-yl)-6-methylpyridin-3-yl)benzamide], 0.1 nM; under `Cc1ccc(NC(=O)c2ccnc(C(C)(F)F)c2)cc1-c1ccc2c(c1)N1CCOC[C@H]1[C@](F)(CO)C2` [Example 369, 2-(1,1-difluoroethyl)-N-(3-((4aS,5S)-5-fluoro-5-(hydroxymethyl)-1,2,4,4a,5,6-hexahydro-[1,4]oxazino[4,3-a]quinolin-9-yl)-4-methylphenyl)isonicotinamide], 0.3 nM.
Turning to `Cc1ccc(NC(=O)c2ccnc(C(C)(F)F)c2)cc1-c1ccc2c(c1)N1CCOC[C@@H]1[C@@](F)(CO)C2` [Example 370, 2-(1,1-difluoroethyl)-N-(3-((4aR,5R)-5-fluoro-5-(hydroxymethyl)-1,2,4,4a,5,6-hexahydro-[1,4]oxazino[4,3-a]quinolin-9-yl)-4-methylphenyl)isonicotinamide], the IC50 is 0.1 nM.
